Data: patent US7411083B2, “Substituted acetic acid derivatives” (Wyeth, priority 2003, dated 2008)

Target: T1, recombinant human plasminogen activator inhibitor-1 (PAI-1) (Homo sapiens, UniProt P05121)
T1 construct: purchased Molecular Innovations, Royal Oak, Mich
Test: Screening for PAI-1 inhibition (residual tPA activity, Spectrozyme-tPA chromogenic substrate)
Assay type: biochemical
Settings: test compound at 100 Um; pH 6.6 buffer, 140 nM PAI-1, 70 nM tPA
Experimental: Screening for PAI-1 inhibition. Test compounds are dissolved in DMSO at a final concentration of 10 Mm, then diluted 100× in physiologic buffer. The inhibitory assay is initiated by the addition of the test compound (1-100 μM final concentration, maximum DMSO concentration of 0.2%) in a Ph 6.6 buffer containing 140 Nm recombinant human plasminogen activator inhibitor-1 (PAI-1; Molecular Innovations, Royal Oak, Mich.). Following a 1 hour incubation at room temperature, 70 Nm of recombinant human tissue plasminogen activator (Tpa) is added, and the combination of the test compound, PAI-1 and Tpa is incubated for an additional 30 minutes. Following the second incubation, Spectrozyme-Tpa (American Diagnostica, Greenwich, Conn.), a chromogenic substrate for Tpa, is added and absorbance read at 405 nm at 0 and 60 minutes. Relative PAI-1 inhibition is equal to the residual Tpa activity in the presence of the test compounds and PAI-1. Control treatments include the complete inhibition of Tpa by PAI-1 at the molar ratio employed (2:1), and the absence of any effect of the test compound on Tpa alone.

T1 sequence (P05121 24-402): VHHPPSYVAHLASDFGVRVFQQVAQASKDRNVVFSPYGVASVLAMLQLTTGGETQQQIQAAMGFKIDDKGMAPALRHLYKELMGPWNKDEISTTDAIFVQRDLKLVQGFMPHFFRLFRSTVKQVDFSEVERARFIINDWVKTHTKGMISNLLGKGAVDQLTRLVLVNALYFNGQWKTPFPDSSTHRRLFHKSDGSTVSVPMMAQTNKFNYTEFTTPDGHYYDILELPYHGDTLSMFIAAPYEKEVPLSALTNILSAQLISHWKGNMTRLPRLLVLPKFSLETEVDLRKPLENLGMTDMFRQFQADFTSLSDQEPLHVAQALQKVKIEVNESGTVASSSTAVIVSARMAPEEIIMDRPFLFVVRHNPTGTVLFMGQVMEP

Row | Structure (SMILES) | inhibition at 100 µM [%]
1 | C=CCn1cc(/C=N/OCC(=O)O)c2cc(OCc3ccc(C(F)(F)F)cc3)ccc21 [Compound 1, ({[(1E)-(1-allyl-5-{[4-(trifluoromethyl)benzyl]oxy}-1H-indol-3-yl)methylidene]amino}oxy)acetic acid] | 86
2 | CCn1cc(/C=N/OCC(=O)O)c2cc(OCc3ccc(C(F)(F)F)cc3)ccc21 [Compound 2, ({[(1E)-(1-ethyl-5-{[4-(trifluoromethyl)benzyl]oxy}-1H-indol-3-yl)methylidene]amino}oxy)acetic acid] | 83
3 | C=CCn1cc(/C=N/OCC(=O)O)c2cc(OCc3ccc(C(C)(C)C)cc3)ccc21 [Compound 4, {[((1E)-{1-allyl-5-[(4-tert-butylbenzyl)oxy]-1H-indol-3-yl}methylidene)amino]oxy}acetic acid] | 83
4 | CCn1cc(/C=N/OCC(=O)O)c2cc(OCc3ccc(C(C)(C)C)cc3)ccc21 [Compound 5, {[((1E)-{5-[(4-tert-butylbenzyl)oxy]-1-ethyl-1H-indol-3-yl}methylidene)amino]oxy}acetic acid] | 93
5 | CC(C)(C)c1ccc(COc2ccc3c(c2)c(/C=N/OCC(=O)O)cn3Cc2ccccc2)cc1 [Compound 6, {[((1E)-{1-benzyl-5-[(4-tert-butylbenzyl)oxy]-1H-indol-3-yl}methylidene)amino]oxy}acetic acid] | 68
6 | C=CCn1cc(/C=N/OCC(=O)O)c2cc(OCc3ccc(Br)cc3)ccc21 [Compound 7, {[((1E)-{1-allyl-5-[(4-bromobenzyl)oxy]-1H-indol-3-yl}methylidene)amino]oxy}acetic acid] | 83
7 | CCn1cc(/C=N/OCC(=O)O)c2cc(OCc3ccc(Br)cc3)ccc21 [Compound 8, {[((1E)-{5-[(4-bromobenzyl)oxy]-1-ethyl-1H-indol-3-yl}methylidene)amino]oxy}acetic acid] | 63
8 | C=CCn1cc(/C=N/OCC(=O)O)c2cc(OCc3cc(C(F)(F)F)cc(C(F)(F)F)c3)ccc21 [Compound 10, ({[(1E)-(1-allyl-5-{[3,5-bis(trifluoromethyl)benzyl]oxy}-1H-indol-3-yl)methylidene]amino}oxy)acetic acid] | 86
9 | CCn1cc(/C=N/OCC(=O)O)c2cc(OCc3cc(C(F)(F)F)cc(C(F)(F)F)c3)ccc21 [Compound 11, ({[(1E)-(5-{[3,5-bis(trifluoromethyl)benzyl]oxy}-1-ethyl-1H-indol-3-yl)methylidene]amino}oxy)acetic acid] | 71
10 | O=C(O)CO/N=C/c1cn(Cc2ccccc2)c2ccc(OCc3cc(C(F)(F)F)cc(C(F)(F)F)c3)cc12 [Compound 12, ({[(1E)-(1-benzyl-5-{[3,5-bis(trifluoromethyl)benzyl]oxy}-1H-indol-3-yl)methylidene]amino}oxy)acetic acid] | 57
11 | C=CCn1cc(/C=N/OCC(=O)O)c2cc(OCc3cccc(Br)c3)ccc21 [Compound 13, {[((1E)-{1-allyl-5-[(3-bromobenzyl)oxy]-1H-indol-3-yl}methylidene)amino]oxy}acetic acid] | 95
12 | CCn1cc(/C=N/OCC(=O)O)c2cc(OCc3cccc(Br)c3)ccc21 [Compound 14, {[((1E)-{5-[(3-bromobenzyl)oxy]-1-ethyl-1H-indol-3-yl}methylidene)amino]oxy}acetic acid] | 80
13 | O=C(O)CO/N=C/c1cn(Cc2ccccc2)c2ccc(OCc3cccc(Br)c3)cc12 [Compound 15, {[((1E)-{1-benzyl-5-[(3-bromobenzyl)oxy]-1H-indol-3-yl}methylidene)amino]oxy}acetic acid] | 71
14 | C=CCn1cc(/C=N/OCC(=O)O)c2cc(OCc3cccc(Cl)c3)ccc21 [Compound 16, {[((1E)-{1-allyl-5-[(3-chlorobenzyl)oxy]-1H-indol-3-yl}methylidene)amino]oxy}acetic acid] | 58
15 | CCn1cc(/C=N/OCC(=O)O)c2cc(OCc3cccc(Cl)c3)ccc21 [Compound 17, {[((1E)-{5-[(3-chlorobenzyl)oxy]-1-ethyl-1H-indol-3-yl}methylidene)amino]oxy}acetic acid] | 68
16 | O=C(O)CO/N=C/c1cn(Cc2ccccc2)c2ccc(OCc3cccc(Cl)c3)cc12 [Compound 18, {[((1E)-{1-benzyl-5-[(3-chlorobenzyl)oxy]-1H-indol-3-yl}methylidene)amino]oxy}acetic acid] | 84
17 | C=CCn1cc(/C=N/OCC(=O)O)c2cc(OCc3ccc(C)cc3)ccc21 [Compound 19, {[((1E)-{1-allyl-5-[(4-methylbenzyl)oxy]-1H-indol-3-yl}methylidene)amino]oxy}acetic acid] | 73
18 | CCn1cc(/C=N/OCC(=O)O)c2cc(OCc3ccc(C)cc3)ccc21 [Compound 20, {[((1E)-{1-ethyl-5-[(4-methylbenzyl)oxy]-1H-indol-3-yl}methylidene)amino]oxy}acetic acid] | 44
19 | Cc1ccc(COc2ccc3c(c2)c(/C=N/OCC(=O)O)cn3Cc2ccccc2)cc1 [Compound 21, {[((1E)-{1-benzyl-5-[(4-methylbenzyl)oxy]-1H-indol-3-yl}methylidene)amino]oxy}acetic acid] | 80
20 | C=CCn1cc(/C=N/OCC(=O)O)c2cc(OCc3cccc(C(F)(F)F)c3)ccc21 [Compound 22, ({[(1E)-(1-allyl-5-{[3-(trifluoromethyl)benzyl]oxy}-1H-indol-3-yl)methylidene]amino}oxy)acetic acid] | 80
21 | CCn1cc(/C=N/OCC(=O)O)c2cc(OCc3cccc(C(F)(F)F)c3)ccc21 [Compound 23, ({[(1E)-(1-ethyl-5-{[3-(trifluoromethyl)benzyl]oxy}-1H-indol-3-yl)methylidene]amino}oxy)acetic acid] | 56
22 | O=C(O)CO/N=C/c1cn(Cc2ccccc2)c2ccc(OCc3cccc(C(F)(F)F)c3)cc12 [Compound 24, ({[(1E)-(1-benzyl-5-{[3-(trifluoromethyl)benzyl]oxy}-1H-indol-3-yl)methylidene]amino}oxy)acetic acid] | 79
23 | C=CCn1cc(/C=N/OCC(=O)O)c2cc(OCc3cccc(C)c3)ccc21 [Compound 25, {[((1E)-{1-allyl-5-[(3-methylbenzyl)oxy]-1H-indol-3-yl}methylidene)amino]oxy}acetic acid] | 68
24 | CCn1cc(/C=N/OCC(=O)O)c2cc(OCc3cccc(C)c3)ccc21 [Compound 26, {[((1E)-{1-ethyl-5-[(3-methylbenzyl)oxy]-1H-indol-3-yl}methylidene)amino]oxy}acetic acid] | 26
25 | Cc1cccc(COc2ccc3c(c2)c(/C=N/OCC(=O)O)cn3Cc2ccccc2)c1 [Compound 27, {[((1E)-{1-benzyl-5-[(3-methylbenzyl)oxy]-1H-indol-3-yl}methylidene)amino]oxy}acetic acid] | 99
26 | CCn1cc(/C=N/OCC(=O)O)c2cc(OCc3ccccc3Cl)ccc21 [Compound 28, {[((1E)-{5-[(2-chlorobenzyl)oxy]-1-ethyl-1H-indol-3-yl}methylidene)amino]oxy}acetic acid] | 70
27 | O=C(O)CO/N=C/c1cn(Cc2ccccc2)c2ccc(OCc3ccccc3Cl)cc12 [Compound 29, {[((1E)-{1-benzyl-5-[(2-chlorobenzyl)oxy]-1H-indol-3-yl}methylidene)amino]oxy}acetic acid] | 82
